Measured values taken from patent publication US11497740B2, “Use of Jumonji C demethylase inhibitors for the treatment and prevention of chemotherapy resistance and radioresistance in cancer” (THE BOARD OF REGENTS OF THE UNIVERSITY OF TEXAS SYSTEM, priority 2016, dated 2022).

Assays:
[1] = system: pro-apoptotic/anti-proliferative genes and proliferative/oncogenic genes; experiment: qRT-PCR of pro-apoptotic and proliferative genes in treated H1299 T18 cells; format: cell-based, human; conditions: 24 h; JIB-04 0.2 μM or GSK-J4 1 μM
Excerpt: (§1) Total RNA was isolated using RNeasy Plus Mini kit (Qiagen) and cDNA was generated using iScript cDNA synthesis kit (BioRad). For epigenetic enzymes, transcripts were detected by SYBR Green chemistry in real time quantitative PCR assays using validated primers. TBP and GAPDH were used as endogenous controls. […] For all non-epigenetic transcripts, TaqMan probes (Life Technologies) were utilized in multiplex with GAPDH internal reference gene. Additionally, a reference sample containing pooled RNA from normal human and tumor tissues (Stratagene) was used. PCR reactions were run using the ABI 7300 Real-time PCR System and analyzed with the included software. The comparative CT method was used to compute relative mRNA expression.

[2] = system: A549; experiment: Clonogenic survival with ionizing radiation, A549; format: cell-based, Human; conditions: 25 nM JIB-04; for radiosensitization (clonogenic survival): drug 4 h before IR
Method: Cells were serially diluted to appropriate concentrations and plated into 60-mm dish in triplicate for 4 h. Then cells were treated with the indicated drugs, and irradiated 4 hours later with graded doses of radiation for concurrent treatment or irradiated and 4 hours later the drugs added for post-treatment. All cells were irradiated at room temperature in ambient air using a 137Cs source (Mark 1-68 irradiator, JL Shepherd & Associated). Surviving colonies were stained with crystal violet approximately 10 to 14 days later and colonies formed with more than 50 cells were counted. Clonogenic fraction of irradiated cells was normalized to the plating efficiency of unirradiated controls. The data are presented as the mean±SD. The curve S=e^−(αD+βD2) was fitted to the experimental data using a least square fit algorithm using the program Sigma Plot 11.0 (Systat Software, Inc.).

[3] = system: γH2AX foci; experiment: Immunofluorescence DSB repair kinetics, γH2AX foci; format: cell-based, Human
Method: NSCLCs were seeded onto Lab-Tek II Chamber Slides (Thermo Fisher) and 24 hours later pretreated with JIB-04 or DMSO for 4 h. Then cells were exposed to a total dose of 2 Gy (γH2AX and 53BP1) or 10 Gy (RAD-51 and DNAPKcs p-T2609) radiation. For knockdown and overexpression experiments H1299 cells were transfected using the Amaxa Nucleofector; program X-005. Specifically, 3×10^6 were transfected with siRNA duplexes targeting JMJD2A, JMJD2B, Jarid1A, Jarid1b, scrambled siRNA (250 nM final concentration) or expression vectors pCMVHA-JMJD2A, pCMVHA-JMJD2B, pCMVHA-Jarid1A, pCMVHA-Jarid1B, PC-2 for 72 hours, followed by quantification of expression or irradiation. Then, cells were fixed in 4% formaldehyde/PBS for 15 min, permeabilized with 0.5% Triton X-100 for 15 min on ice, and blocked with 5% bovine serum albumin in PBS for 1 h. The slides were incubated with an antibody against phospho-Histone γH2AX (1:1000, 3 h at room temperature), 53BP1 (1:500, 3 h at room temperature), Rad-51 (1:500, 48 hs 4° C.) or DNAPKcs p-T2609 (1:500, 48 hs 4° C.). Alexa Fluor 488-conjugated goat anti-Rabbit, […] goat anti-mouse or rhodamine red-conjugated goat anti-mouse secondaries antibodies were used (1:1000, 1 h at room temperature). Slides were mounted in a Vectashield mounting medium containing 4′,6-diamidino-2-phenylindole (DAPI). Cells were analyzed on a Zeiss upright fluorescent microscope.

[4] = system: H3K27me3 demethylase activity; experiment: Histone demethylase activity in tumor lysates by ELISA (H3K27me3); format: in vivo; conditions: H1299 T18 xenografts, drug-treated vs vehicle
Excerpt: To evaluate whether the targeted KDM enzymatic activity was reduced in the JmjC inhibitor-treated tumors in vivo, the inventors measured histone demethylase activity in drug-treated and vehicle-control tumor lysates by ELISA. […] Altogether, the results confirmed reduction of the targeted KDM enzymatic activity with cytostatic/cytotoxic effects in JmjC inhibitor-treated chemoresistant xenografts.

[5] = system: ABCB1/MDR1; experiment: qRT-PCR of ABCB1/MDR1 in treated H1299 T18 cells; format: cell-based, human; conditions: for expression of MDR1: H1299 T18 cells
Excerpt: as §1

[6] = system: H1299 T18 chemo-resistant cells; experiment: Colony formation, combination with paclitaxel+carboplatin; format: cell-based, human; conditions: positive ΔBliss
Method: All statistical tests including two-way ANOVA with Sidak's multiple comparisons test, one-way ANOVA with Dunnett's multiple comparisontest, post-test for linear trend and unpaired t-tests were performed using GraphPad Prism 6.00. P values are represented as *P<0.05, **P<0.01, ***P<0.001 and ****P<0.0001. For drug treatments, dose response curves and IC50 values were calculated using GraphPad Prism or in-house DIVISA (Database of InVItro Sensitivity Assays; L. Girard). For drug combination in colony formation, delta Bliss excess was calculated as shown previously (Wilson et al., 2014). Bliss expectation was calculated as A+B−(A×B), where A and B denote the fractional responses from drugs A and B given individually. The difference between Bliss expectation and observed response from combination of drugs A and B at the same doses is the delta Bliss excess.
400 cells were seeded per well in six well plates and treated with various drug concentrations the next day. After 2-3 weeks, colonies were stained with 0.5% crystal violet, 3% formaldehyde solution and counted both manually and automatically using Quantity One image analysis software (Bio-Rad).

[7] = system: H1355 T16; experiment: MTS cell viability assay, H1355 T16 resistant variant vs H1355 Parental; format: cell-based, human; conditions: H1355 T16 vs H1355 Parental
Method: NSCLC lines were treated with paclitaxel+carboplatin combination, given in a ˜2:3 wt/wt ratio, to mirror the clinical dosage values of ˜225 mg/m2 and ˜330 mg/m2, paclitaxel and carboplatin respectively. Note that considering the molecular weights of the two drugs, this translates to approximately a 1 to 3.4 molar ratio. Drugs were given in cycles, following a drug on/drug off treatment scheme. Each cycle consisted of 4-5 days of drug treatment and drug-free culturing for about 1-2 weeks or more to allow the surviving cells to repopulate the plate. […] Untreated parental cells were simultaneously maintained at all times for comparison. Cell viability was assessed in 96-well plates using standard MTS assays (Promega). Treatment duration in MTS assays was 4 days. Drugs were tested in two- or four-fold serial dilutions, totaling 8 different drug concentrations, with 8 replicates per concentration. Response was validated in multiple replicate plates (n≥3).
Cell viability was assessed by standard MTS assays using Promega's CellTiter reagents. Eight drug concentrations given as two- or four-fold dilutions were tested for each chemotherapeutic agent. In addition, each experiment contained eight replicates per concentration and the entire assay was performed in multiple replicates (n≥3).

Row | SMILES | pro-apoptotic/anti-proliferative gene expression [1] | proliferative/oncogenic gene expression [1] | radiosensitization (clonogenic survival) [2] | defects in γH2AX foci resolution ([3]; H1299 and A549, 4 h pretreatment, then IR) | H3K27me3 demethylase activity in tumor lysates [4] | expression of MDR1 [5] | colony formation in combination with paclitaxel+carboplatin [6] | sensitivity of resistant variant compared to parental cells [7] | radiosensitization, JIB-04 before IR vs 4 h post-irradiation [2] | γH2AX foci remaining unresolved at late time points ([3]; H1299 and A549, 4 h pretreatment with colony formation IC50 dose, then IR) [%] | γH2AX foci formation and resolution ([3]; normal HBEC30KT cells, 500 nM JIB-04, 2 Gy) | γH2AX foci resolution ([3]; prostate cancer cell line LNCap, JIB-04 and IR, data not shown) | decrease in ABCB1/MDR1 mRNA expression ([5]; high dose JIB-04 (10×-20×IC50), 24-48 h treatment) | decrease in ABCB1/MDR1 mRNA expression ([5]; low dose JIB-04 (1×IC50), 1 wk treatment) | H1355 T16 SR (Selectivity Ratio) ([7]; SR = [IC50 of Parental]/[IC50 of Resistant])
1 | CCOC(=O)CCNc1cc(N2CCc3ccccc3CC2)nc(-c2ccccn2)n1 [GSK-J4] | up-regulated | downregulated | failed to radiosensitize | not observed | significantly inhibited H3K27me3 demethylase activity | not altered | synergistic inhibition of colony formation | higher sensitivity | – | – | – | – | – | – | –
2 | Clc1ccc(N/N=C(\c2ccccc2)c2ccccn2)nc1 [JIB-04] | up-regulated | downregulated | had a radiosensitization/radioenhancement effect | – | significantly inhibited | not altered | synergistic inhibition of colony formation | higher sensitivity | significantly more robust when administering JIB-04 first | > 30 | no defects | defects in γH2AX foci resolution | 10-20% | 10-20% | 2.8
